This is an account of results in patent publication US12310236B2, “Encapsulant preventing lead leakage on perovskite, method for encapsulating perovskite to prevent lead leakage and perovskite photosensitive device comprising the same” (PUKYONG NATIONAL UNIVERSITY INDUSTRY—UNIVERSITY COOPERATION …, priority 2023, dated 2025).

The data set is described as follows: Solvent solubility of the crown ether compounds in the coating solution. Format: physicochemical. Particulars: ethanol coating solution.

Procedure: We prepared a coating solution for performing the perovskite encapsulating method. 18-crown-6-ether (hereafter, referred to as a raw material) was prepared as the crown ether. A compound (hereinafter, referred to as di-benzo) in which only two benzene rings are bonded to the crown ether was prepared as a comparative group. […] The di-benzo was dissolved in ethanol at 0.01 to 0.03% by weight. […] Thus, resulting solutions were prepared.

As to `c1ccc2c(c1)OCCOCCOc1ccccc1OCCOCCO2` [di-benzo], the solvent solubility was not above 0.03 % by weight.
